In one data set the target is T1, Cytochrome P450 1A2 (Homo sapiens, UniProt P05177).
T1 sequence (P05177 whole entry): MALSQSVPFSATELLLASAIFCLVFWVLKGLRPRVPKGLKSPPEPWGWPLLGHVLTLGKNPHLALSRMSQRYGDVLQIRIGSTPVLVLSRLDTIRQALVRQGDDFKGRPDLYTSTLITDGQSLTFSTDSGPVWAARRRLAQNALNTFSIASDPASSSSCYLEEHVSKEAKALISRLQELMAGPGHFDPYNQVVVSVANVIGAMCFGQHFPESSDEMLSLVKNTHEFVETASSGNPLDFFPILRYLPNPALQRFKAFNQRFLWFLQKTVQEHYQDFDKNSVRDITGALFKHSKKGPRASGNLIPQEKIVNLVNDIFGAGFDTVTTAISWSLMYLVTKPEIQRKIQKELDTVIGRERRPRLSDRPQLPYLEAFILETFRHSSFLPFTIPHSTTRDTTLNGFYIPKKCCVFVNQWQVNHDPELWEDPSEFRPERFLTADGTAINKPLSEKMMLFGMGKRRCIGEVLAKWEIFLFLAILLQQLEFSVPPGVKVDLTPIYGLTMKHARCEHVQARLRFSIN
Kind of data set: Inhibition of CYP1A2 in human liver microsomes in presence of NADPH by LC-MS/MS analysis. Type of data set: ADME, Microsome.

A short description of data set [1]: AUC (0 to t) in male rat at 60 mg/kg/day for 28 days. The format is ADME, organism-based. As to conditions: in vivo, time 28 day.
Data set [2] is described as follows: Toxicity in cynomolgous monkey assessed as decrease in food consumption at 90 to 200 mg/kg/day for 28 days consecutively. The format is organism-based, Macaca fascicularis. As to conditions: cynomolgus monkey, in vivo, 672 h; dose 90-200 mg/kg/day, time 28 day.
A short description of data set [3]: AUC (last) in overnight-fasted Sprague-Dawley rat at 5 mg/kg, po measured upto 24 hrs by LC-MS/MS analysis. Type of data set: ADME, organism-based. As to conditions: in vivo.
The test system of data set [4] is Sapajus apella. As to conditions: dose 100.0 mg/kg/day, route po, time 3.0 day.
The target of data set [5] is T2, Solute carrier family 22 member 12 (Homo sapiens, UniProt Q96S37).
T2 sequence (Q96S37 whole entry): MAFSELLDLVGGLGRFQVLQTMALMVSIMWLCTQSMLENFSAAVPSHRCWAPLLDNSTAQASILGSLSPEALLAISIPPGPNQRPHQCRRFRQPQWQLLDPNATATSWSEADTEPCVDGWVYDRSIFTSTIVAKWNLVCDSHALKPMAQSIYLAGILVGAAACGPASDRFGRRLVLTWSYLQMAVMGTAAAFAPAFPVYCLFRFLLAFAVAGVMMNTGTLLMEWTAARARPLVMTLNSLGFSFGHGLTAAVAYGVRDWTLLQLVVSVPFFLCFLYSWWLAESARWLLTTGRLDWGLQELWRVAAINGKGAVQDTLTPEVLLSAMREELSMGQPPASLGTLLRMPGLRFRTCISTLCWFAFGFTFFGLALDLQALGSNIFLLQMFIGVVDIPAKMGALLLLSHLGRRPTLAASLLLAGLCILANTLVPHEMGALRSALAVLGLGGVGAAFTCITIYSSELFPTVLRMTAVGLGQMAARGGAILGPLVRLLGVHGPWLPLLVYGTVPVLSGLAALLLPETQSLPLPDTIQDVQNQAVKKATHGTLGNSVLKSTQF
Put plainly: Inhibition of URAT1 (unknown origin) by absorbance based assay.

Data set [6] is described as follows: Half life in overnight-fasted Sprague-Dawley rat at 5 mg/kg, po measured upto 24 hrs by LC-MS/MS analysis. Type of data set: ADME, organism-based. As to conditions: in vivo.
Data set [7] can be described thus: Toxicity in rat assessed as diffuse hepatocytes hypertrophy at 120 mg/kg/day for 28 days by H and E staining based analysis. The format is organism-based. As to conditions: in vivo, 672 h, time 28 day.
In the next data set the target is Cytochrome P450 2C9 (Homo sapiens, UniProt P11712). Put plainly: Inhibition of CYP2C9 in human liver microsomes in presence of NADPH by LC-MS/MS analysis. The format is ADME, Microsome.
Data set [8] is described as follows: Genotoxicity in Salmonella typhimurium TA97 by Ames test. Type of data set: toxicity. As to conditions: salmonella enterica subsp. enterica serovar typhimurium.
The nature of data set [9]: Volume of distribution at steady state in overnight-fasted Sprague-Dawley rat at 5 mg/kg, po or 1 mg/kg, iv measured upto 24 hrs by LC-MS/MS analysis. Type of data set: ADME, organism-based. As to conditions: in vivo.
The nature of data set [10]: Ratio of drug concentration in Sprague-Dawley rat kidney to plasma at 3 mg/kg, po measured for 24 hrs by LC-MS/MS analysis. The format is ADME, organism-based. As to conditions: kidney and plasma.
The nature of data set [11]: Toxicity in cynomolgous monkey assessed as drug tolerance at 30 to 200 mg/kg/day for 28 days consecutively. Type of data set: organism-based, Macaca fascicularis. As to conditions: cynomolgus monkey, in vivo, 672 h; dose 30-200 mg/kg/day, time 28 day.
Data set [12] in a line: Toxicity in cynomolgous monkey assessed as flatus in intestines at 200 mg/kg/day for 28 days consecutively. Type of data set: organism-based, Macaca fascicularis. As to conditions: cynomolgus monkey, in vivo, 672 h, time 28 day.
Data set [13] can be described thus: Toxicity in rat assessed as acute inflammation in pylorus at 120 mg/kg/day for 28 days by H and E staining based analysis. The format is organism-based. As to conditions: in vivo, 672 h, time 28 day.
Data set [14] is described as follows: Half life in Tufted capuchin monkey at 30 mg/kg, po measured for 24 hrs by LC-MS/MS analysis. Type of data set: ADME, organism-based. As to conditions: sapajus apella, in vivo.
The nature of data set [15]: Tmax in Tufted capuchin monkey at 30 mg/kg, po measured for 24 hrs by LC-MS/MS analysis. As to conditions: sapajus apella, in vivo. Type of data set: ADME, organism-based.
Data set [16] in a line: Toxicity in rat assessed as decrease in food consumption at 60 to 120 mg/kg/day for 28 days. Type of data set: organism-based. As to conditions: in vivo, 672 h, dose 60-120 mg/kg/day, time 28 day.
In data set [17] the test system is Sapajus apella. As to conditions: dose 30.0 mg/kg/day, route po, time 3.0 day.
Data set [18] in a line: Clearance in Cynomolgous monkey at 1 mg/kg, iv measured upto 24 hrs by LC-MS/MS analysis. Type of data set: ADME, organism-based, Macaca fascicularis. As to conditions: cynomolgus monkey, in vivo.
The target in another data set is T3, Cytochrome P450 2C8 (Homo sapiens, UniProt P10632).
T3 sequence (P10632 whole entry): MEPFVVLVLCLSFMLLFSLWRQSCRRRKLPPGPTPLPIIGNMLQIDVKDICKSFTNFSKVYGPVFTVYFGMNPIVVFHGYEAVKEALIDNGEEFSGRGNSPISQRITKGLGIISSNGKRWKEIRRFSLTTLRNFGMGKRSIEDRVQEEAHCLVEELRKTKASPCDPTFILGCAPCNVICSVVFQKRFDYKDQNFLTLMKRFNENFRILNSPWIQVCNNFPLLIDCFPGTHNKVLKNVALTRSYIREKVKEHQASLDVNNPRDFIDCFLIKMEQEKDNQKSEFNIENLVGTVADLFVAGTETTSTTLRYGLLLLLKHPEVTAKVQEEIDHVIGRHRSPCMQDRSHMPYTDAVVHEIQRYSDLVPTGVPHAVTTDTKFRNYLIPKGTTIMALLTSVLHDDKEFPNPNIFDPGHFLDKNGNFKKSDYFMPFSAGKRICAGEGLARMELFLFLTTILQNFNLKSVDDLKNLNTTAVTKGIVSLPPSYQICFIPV
Put plainly: Inhibition of CYP2C8 in human liver microsomes in presence of NADPH by LC-MS/MS analysis. Type of data set: ADME, Microsome.

The nature of data set [19]: Toxicity in cynomolgous monkey assessed as increase in vomiting at 90 to 200 mg/kg/day for 28 days consecutively. Type of data set: organism-based, Macaca fascicularis. As to conditions: cynomolgus monkey, in vivo, 672 h; dose 90-200 mg/kg/day, time 28 day.

Chain of Cytochrome P450 2C9 (P11712 whole entry): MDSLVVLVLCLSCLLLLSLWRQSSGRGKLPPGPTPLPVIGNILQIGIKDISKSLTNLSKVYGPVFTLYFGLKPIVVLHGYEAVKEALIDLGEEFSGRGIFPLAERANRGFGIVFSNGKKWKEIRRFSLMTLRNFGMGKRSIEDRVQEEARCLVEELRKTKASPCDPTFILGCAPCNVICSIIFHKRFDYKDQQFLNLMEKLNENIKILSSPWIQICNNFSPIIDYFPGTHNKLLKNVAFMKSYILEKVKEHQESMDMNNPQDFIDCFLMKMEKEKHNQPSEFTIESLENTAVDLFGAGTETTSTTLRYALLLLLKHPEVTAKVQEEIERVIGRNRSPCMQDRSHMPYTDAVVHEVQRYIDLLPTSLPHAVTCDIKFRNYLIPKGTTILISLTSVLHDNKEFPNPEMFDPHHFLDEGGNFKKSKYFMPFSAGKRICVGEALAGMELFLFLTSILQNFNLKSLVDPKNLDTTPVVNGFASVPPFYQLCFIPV

For `N#Cc1cc(-c2ccc(C(=O)O)c(O)c2)c2oc(F)cc2c1`, the IC50 was more than 50000 nM on Cytochrome P450 1A2, 31 nM in data set [5], 2780 nM at Cytochrome P450 2C9 and 12200 nM at Cytochrome P450 2C8. Further, the AUC(0-t) at 672 h in data set [1] was determined as 2250 µg·h/mL. For the same compound, the Activity entry in data set [2] is “Toxic”; in data set [7] it was “Toxic”; in data set [8], “Non-Toxic”; in data set [11], “Non-Toxic”; in data set [12], “Toxic”; in [13], “Toxic”. For the same compound, the Activity result in [16] and in data set [19] was “Toxic” in each case. Moreover, the AUC(0-t) at 24 h in data set [3] is 81.7 µg·h/mL. In addition, the AUC in the data set with Sapajus apella [4] came to 357000 ng·h/mL; in the data set on Sapajus apella [17] it was 504000 ng·h/mL. Also, the figures for the half-life in data set [6] and in [14] were 2.84 h and 3.1 h, respectively. Further, the Vdss in data set [9] amounted to 0.31 L/kg. The Kp at 24 h in data set [10] was determined as 0.56. Moreover, in data set [15], the Tmax turned out to be 0.8 h. This compound gave a clearance in [18] of 0.993 mL/min/kg.

Source of the values: ChEMBL document CHEMBL5584307, “Discovery of a Potent and Orally Bioavailable Xanthine Oxidase/Urate Transporter 1 Dual Inhibitor as a Potential Treatment for Hyperuricemia and Gout” (J Med Chem, 2024).
